{"source": "patent US20250333371A1", "about": "“COMPOUNDS” (PSYLO PTY LTD, priority 2022, published 2025)", "key": {"[1]": {"molecular_target": "T1, 5-HT2A (Homo sapiens, UniProt P28223)", "T1 construct": "host or cells: HEK293", "T1 sequence (P28223 whole entry)": "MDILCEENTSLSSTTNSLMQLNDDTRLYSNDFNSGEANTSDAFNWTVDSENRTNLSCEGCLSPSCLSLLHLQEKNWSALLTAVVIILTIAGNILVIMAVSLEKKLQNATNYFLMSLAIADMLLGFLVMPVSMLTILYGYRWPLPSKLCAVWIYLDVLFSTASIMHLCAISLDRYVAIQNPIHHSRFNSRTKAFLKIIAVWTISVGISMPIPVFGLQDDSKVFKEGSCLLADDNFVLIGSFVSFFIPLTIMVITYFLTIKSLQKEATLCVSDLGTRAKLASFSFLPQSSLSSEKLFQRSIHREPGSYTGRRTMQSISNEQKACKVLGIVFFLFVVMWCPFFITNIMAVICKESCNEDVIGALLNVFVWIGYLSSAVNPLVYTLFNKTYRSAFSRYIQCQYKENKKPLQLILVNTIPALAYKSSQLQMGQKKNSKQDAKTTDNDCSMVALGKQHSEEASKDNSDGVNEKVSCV", "assay": "FLIPR Ca2+ flux functional assay, 5-HT2A receptor (stably transfected HEK293)", "format": "cell-based", "method": "(§1) Activity at 5-HT2A, 5-HT2B and 5-HT2C receptors was determined using a FLIPR Ca^2+ flux assay at WuXi AppTec Co. Ltd. (Hong Kong) Discovery Biology Unit according to their standard protocols. Briefly, stably transfected cells expressing the receptor of interest (HEK293 for 5-HT2A and 5-HT2C; CHO-K1 for 5-HT2B) were grown and plated in a 384 well plate and incubated at 37° C. and 5% CO2 overnight. A 250 mM stock solution of probenecid in FLIPR calcium assay buffer (10 mL) was freshly prepared and combined with a fluorescent dye (Fluo-4 Direct) to give a final assay concentration of 2.5 mM. Reference compounds were 4-fold serially diluted and the screening compounds were 3-fold serially diluted in 100% DMSO for 10 points using Agilent Bravo, and 750 nL was added to a 384 well compound plate using Echo along with 30 μL assay buffer. The fluorescent dye was then added to the assay plate along with assay buffer to a final volume of 40 μL. The cell plate was incubated for 50 min at 37° C. and 5% CO2 and placed into the FLIPR Tetra along with the compound plate. 10 μL of references and compounds were then transferred from the compound plate into the cell plate and the fluorescent signal was read."}, "[2]": {"assay": "In vivo pharmacokinetics: plasma and brain exposure after IP administration", "parameters": "species or system male C57BL/6 mice", "conditions": "for B:P Ratio Individual / Plasma Concentration (μM) Individual / concentration at 0.5 h / concentration at 0.083 h / concentration at 4 h / Kp at 0.083 h / Kp at 0.5 h / Kp at 4 h / Kp: 10 mg/kg; for Kp at 0.083 h / Kp at 0.5 h / Kp at 4 h / Kp: brain/plasma", "method": "The study was conducted using established procedures in accordance with the Australian Code of Practice for the Care and Use of Animals for Scientific Purposes, and the study protocols were reviewed and approved by the Monash Institute of Pharmaceutical Sciences Animal Ethics Committee.\nThe systemic exposure of selected examples was studied in non-fasted male C57BL/6 mice weighing between 22.3-26.2 g. Mice had access to food and water ad libitum throughout the pre- and post-dose sampling period.\nOn the day of dosing, the formulation of each compound was prepared by dissolving solid compound in phosphate buffer saline (50 mM) using vortexing, creating colourless solutions (pH 6.1-6.3) for each compound.\nCompounds were dosed to mice by IP injection (10 mL/kg dose volume via a 27G needle; n=9 mice per compound) and blood samples were collected at 5 and 30 min; 1, 2 and 4 h post-dose (n=3 mice per time point for each compound). A maximum of three blood samples were obtained from each mouse, with plasma samples being taken via submandibular bleed (approximately 120 μL). Once collected, blood samples were centrifuged immediately, supernatant plasma was removed, and stored at −80° C. until analysis by LCMS. In addition, at the 5 and 30 min and 4 h post-dose time points, the whole brain was rapidly removed from the carcass soon after the blood collection. The whole brains were blotted to remove excess blood, placed into pre-weighed polypropylene vials, and weighed. The brains were snap frozen in dry ice and subsequently stored frozen (−80° C.) until analysis.\nConcentrations of test compound in plasma and tissue samples were determined using an LCMS/MS method validated for linearity, accuracy, precision, matrix factor and recovery (Table 2).\nTest compound standard solutions were diluted from a concentrated stock solution (1 mg/mL in DMSO) using 50% acetonitrile in water (v/v) and a calibration curve was prepared in a matched matrix to the test samples.\nPlasma: The plasma calibration curve was prepared by spiking aliquots of blank mouse plasma (25 μL) with test compound standard solutions (5 μL) and internal standard solution (5 μL of diazepam, 5 μg/mL in 50% acetonitrile in water). Test plasma samples (25 μL) were thawed, mixed, and then spiked with internal standard solution (5 μL). Plasma protein precipitation was performed by addition of acetonitrile (3-fold volume ratio) and thorough vortex mixing. Samples were centrifuged (RCF=9391×g) for 3 minutes and the supernatant (90 μL) was collected for analysis.\nTissue: Pre-weighed tissue samples (brain) were homogenised using a glass rod in buffer containing an EDTA/potassium fluoride solution (0.1 M/4 mg/mL) as a stabilisation cocktail to minimise the potential for ex vivo degradation (3 mL cocktail/g tissue). The tissue homogenate was briefly centrifuged (RCF=79×g) for 10 seconds to separate the foam layer before transferring an aliquot of the tissue homogenate (200 μL) to a fresh Eppendorf tube for sample extraction. Calibration standards were prepared by spiking blank brain homogenate (200 μL) with the solution standards (10 μL) and the internal standard (10 μL). Study samples were similarly prepared, except that acetonitrile (10 μL) was added instead of solution standards to maintain the same volume. Protein precipitation was carried out by the addition of a 3-fold volume of acetonitrile, followed by vortex mixing and centrifugation (RCF=9391×g) for 3 min to recover the supernatant for analysis.\nReplicate analysis: Triplicate analytical replicate (ARs) samples were prepared similarly to the standards for each sample type at three concentrations (50, 500 and 2,000 ng/mL) and repeat injections of these ARs were included throughout the analytical run to assess assay performance. The extraction of the test compound from the standards and ARs were conducted as described above. […]"}, "[3]": {"molecular_target": "T2, 5-HT2C (Homo sapiens, UniProt P28335)", "T2 construct": "host or cells: HEK293", "T2 sequence (P28335 33-458)": "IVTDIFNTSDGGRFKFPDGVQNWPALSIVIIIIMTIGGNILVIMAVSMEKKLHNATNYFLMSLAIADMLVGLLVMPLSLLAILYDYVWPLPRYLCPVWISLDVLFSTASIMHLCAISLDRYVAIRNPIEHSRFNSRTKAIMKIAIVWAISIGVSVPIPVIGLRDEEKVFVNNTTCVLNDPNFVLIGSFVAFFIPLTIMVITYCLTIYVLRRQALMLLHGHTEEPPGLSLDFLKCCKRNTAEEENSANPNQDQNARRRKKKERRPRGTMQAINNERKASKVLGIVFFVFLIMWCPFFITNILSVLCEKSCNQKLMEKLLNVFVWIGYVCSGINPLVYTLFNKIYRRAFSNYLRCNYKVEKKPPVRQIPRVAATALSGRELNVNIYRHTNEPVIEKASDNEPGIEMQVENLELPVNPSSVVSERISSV", "assay": "FLIPR Ca2+ flux functional assay, 5-HT2C receptor (stably transfected HEK293)", "format": "cell-based", "method": "as §1"}, "[4]": {"conditions": "agonist activity, Ca2+ flux, HEK293"}, "[5]": {"conditions": "IP 10 mg/kg, 0.083 h, individual mice"}, "[6]": {"conditions": "IP 10 mg/kg, 0.5 h, individual mice"}, "[7]": {"conditions": "IP 10 mg/kg, 4 h, individual mice"}, "[8]": {"conditions": "male, C57BL/6, mouse, plasma, IP 10 mg/kg"}}, "note": "Several values for one entry are separate records, joined by “and”; a condition that tells them apart may be missing. Identical values can stand only once. Like-named read-outs stand apart in the source and are kept apart here.", "data": [{"smiles": "COc1ccc2cccc(CCN(C)C(C)C)c2c1", "note": "[Example I-7, N-(2-(7-methoxynaphthalen-1-yl)ethyl)-N-methylpropan-2-amine]", "values": [{"measurement": "EC50", "setting": "[1]", "value": 164, "unit": "nM"}, {"measurement": "Emax", "setting": "[1]; [4]", "value": 84, "unit": "%"}, {"measurement": "Brain AUC0-4 h", "setting": "[2]; IP 10 mg/kg", "value": 32.3, "unit": "µM·h"}, {"measurement": "B:P Ratio Individual", "setting": "[2]; [5]", "value": "11 and 8.9"}, {"measurement": "Plasma Concentration (μM) Individual", "setting": "[2]; [5]", "value": "0.896 µM and 1.00 µM"}, {"measurement": "concentration at 0.5 h", "setting": "[2]; IP 10 mg/kg, 0.083 h, individual mice, read-out: Brain Parenchyma Concentration (μM) Individual", "value": "9.90 µM and 8.88 µM"}, {"measurement": "B:P Ratio Individual", "setting": "[2]; [6]", "value": "18 and 26"}, {"measurement": "Plasma Concentration (μM) Individual", "setting": "[2]; [6]", "value": "0.947 µM and 1.55 µM"}, {"measurement": "concentration at 0.5 h", "setting": "[2]; IP 10 mg/kg, 0.5 h, individual mice, read-out: Brain Parenchyma Concentration (μM) Individual", "value": "17.9 µM and 17.5 µM and 40.1 µM"}, {"measurement": "B:P Ratio Individual", "setting": "[2]; [7]", "value": "14 and 11"}, {"measurement": "Plasma Concentration (μM) Individual", "setting": "[2]; [7]", "value": "0.0483 µM and 0.0571 µM"}, {"measurement": "concentration at 0.5 h", "setting": "[2]; IP 10 mg/kg, 4 h, individual mice, read-out: Brain Parenchyma Concentration (μM) Individual", "value": "0.696 µM and 0.639 µM"}, {"measurement": "concentration at 0.083 h", "setting": "[2]; male, C57BL/6, mouse, brain, ip, 0.083 h, individual mice, read-out: Brain Parenchyma Concentration (μM) Individual", "value": 6.41, "unit": "µM"}, {"measurement": "concentration at 0.083 h", "setting": "[2]; male, C57BL/6, mouse, brain, ip, 0.083 h, n = 3, read-out: Brain Parenchyma Concentration (μM) Mean ± SD", "value": "8.4 ± 1.79", "unit": "µM"}, {"measurement": "concentration at 0.5 h", "setting": "[2]; male, C57BL/6, mouse, brain, ip, 0.5 h, n = 3, read-out: Brain Parenchyma Concentration (μM) Mean ± SD", "value": "25.2 ± 13", "unit": "µM"}, {"measurement": "concentration at 4 h", "setting": "[2]; male, C57BL/6, mouse, brain, ip, 4 h, individual mice, read-out: Brain Parenchyma Concentration (μM) Individual", "value": 1.14, "unit": "µM"}, {"measurement": "concentration at 4 h", "setting": "[2]; male, C57BL/6, mouse, brain, ip, 4 h, n = 3, read-out: Brain Parenchyma Concentration (μM) Mean ± SD", "value": 0.0825, "unit": "µM"}, {"measurement": "Kp at 0.083 h", "setting": "[2]; male, C57BL/6, mouse, ip, 0.083 h, individual mice, read-out: B:P Ratio Individual", "value": 9.2}, {"measurement": "Kp at 0.083 h", "setting": "[2]; male, C57BL/6, mouse, ip, 0.083 h, n = 3, read-out: B:P Ratio Mean ± SD", "value": "9.7 ± 1.2"}, {"measurement": "Kp at 0.5 h", "setting": "[2]; male, C57BL/6, mouse, ip, 0.5 h, individual mice, read-out: B:P Ratio Individual", "value": 17}, {"measurement": "Kp at 0.5 h", "setting": "[2]; male, C57BL/6, mouse, ip, 0.5 h, n = 3, read-out: B:P Ratio Mean ± SD", "value": "21 ± 4.6"}, {"measurement": "Kp at 4 h", "setting": "[2]; male, C57BL/6, mouse, ip, 4 h, individual mice, read-out: B:P Ratio Individual", "value": 16}, {"measurement": "Kp at 4 h", "setting": "[2]; male, C57BL/6, mouse, ip, 4 h, n = 3, read-out: B:P Ratio Mean ± SD", "value": "14 ± 2.4"}, {"measurement": "Kp", "setting": "[2]; male, C57BL/6, mouse, ip, (fu, brain * AUCbrain, 0-4 h)/(fu, plasma * AUCplasma, 0-4 h), read-out: (Unbound) time-averaged B:P", "value": 3.2}, {"measurement": "Kp", "setting": "[2]; male, C57BL/6, mouse, ip, AUCbrain, 0-4 h/AUCplasma, 0-4 h, read-out: (Total) time-averaged B:P", "value": 18}, {"measurement": "concentration at 0.083 h", "setting": "[2]; male, C57BL/6, mouse, plasma, ip, 0.083 h, individual mice, read-out: Plasma Concentration (μM) Individual", "value": 0.695, "unit": "µM"}, {"measurement": "concentration at 0.083 h", "setting": "[2]; male, C57BL/6, mouse, plasma, ip, 0.083 h, n = 3, read-out: Plasma Concentration (μM) Mean ± SD", "value": "0.864 ± 0.155", "unit": "µM"}, {"measurement": "concentration at 0.5 h", "setting": "[2]; male, C57BL/6, mouse, plasma, ip, 0.5 h, individual mice, read-out: Plasma Concentration (μM) Individual", "value": 1.03, "unit": "µM"}, {"measurement": "concentration at 0.5 h", "setting": "[2]; male, C57BL/6, mouse, plasma, ip, 0.5 h, n = 3, read-out: Plasma Concentration (μM) Mean ± SD", "value": "1.18 ± 0.329", "unit": "µM"}, {"measurement": "concentration at 4 h", "setting": "[2]; male, C57BL/6, mouse, plasma, ip, 4 h, individual mice, read-out: Plasma Concentration (μM) Individual", "value": 0.0723, "unit": "µM"}, {"measurement": "concentration at 4 h", "setting": "[2]; male, C57BL/6, mouse, plasma, ip, 4 h, n = 3, read-out: Plasma Concentration (μM) Mean ± SD", "value": "0.0592 ± 0.0121", "unit": "µM"}, {"measurement": "Cmax", "setting": "[2]; [8]", "value": 1180, "unit": "nM"}, {"measurement": "Tmax", "setting": "[2]; [8]", "value": 30, "unit": "min"}, {"measurement": "AUC(0-t)", "setting": "[2]; male, C57BL/6, mouse, plasma, IP 10 mg/kg, read-out: Plasma AUC0-4 h", "value": 1.82, "unit": "µM·h"}, {"measurement": "AUC(0-inf)", "setting": "[2]; male, C57BL/6, mouse, plasma, IP 10 mg/kg, read-out: Plasma AUC0-inf", "value": 1.89, "unit": "µM·h"}, {"measurement": "half-life", "setting": "[2]; male, C57BL/6, mouse, IP 10 mg/kg, plasma, read-out: Apparent t1/2 (converted)", "value": 46.2, "unit": "min"}, {"measurement": "EC50", "setting": "[3]", "value": 603, "unit": "nM"}, {"measurement": "Emax", "setting": "[3]; [4]", "value": 56, "unit": "%"}]}]}
